Results as given in patent USRE40793E1, “Bicyclic benzamides of 3-or 4-substituted 4-(aminomethyl)-piperidine derivatives” (Janssen Pharmaceutica, N.V., priority 1997, dated 2009).

Tested on: conscious dogs
Assay: Gastric emptying of an acaloric liquid test meal delayed by administration of lidamidine, in conscious dogs
Type: in vivo, beagle dogs
Conditions: compounds, conscious dog, Δt = t 70% compound minus t 70% solvent, relative to t 70% solvent; for change in vivo at 0.0025 mg/kg / change in vivo at 0.01 mg/kg: Canis lupus familiaris; for change in vivo at 0.0025 mg/kg: read-out: ΔT/T^b (acceleration of gastric emptying of a liquid meal delayed by lidamidine); for change in vivo at 0.01 mg/kg: read-out: ΔT/T^a (acceleration of gastric emptying of a liquid meal delayed by lidamidine); for change in vivo at 0.0025 mg/kg / ΔT/T^b (acceleration of gastric emptying of a liquid meal delayed by lidamidine): dose 0.0025 mg/kg; for change in vivo at 0.01 mg/kg / ΔT/T^a (acceleration of gastric emptying of a liquid meal delayed by lidamidine): dose 0.01 mg/kg
Description: C. Pharmacological Examples C.1. Gastric Emptying of an Acaloric Liquid Test Meal Delayed by Administration of Lidamidine, in Conscious Dogs
Female beagle dogs, weighing 7-14 kg, were trained to stand quietly in Pavlov frames. They were implanted with a gastric cannula under general anesthesia and aseptic precautions. After a medium laparatomy, an incision was made through the gastric wall in the longitudinal direction between the greater and the lesser curve, 2 cm above the nerves of Latarjet. The cannula was secured to the gastric wall by means of a double purse string suture and brought out via a stab wound at the left quadrant of the hypochondrium. Dogs were allowed a recovery period of at least two weeks. Experiments were started after a fasting period of 24 hours, during which water was available ad libitum. At the beginning of the experiment, the cannula was opened in order to remove any gastric juice or food remnants.
The stomach was cleansed with 40 to 50 ml lukewarm water. The test compound was administered I.V. (in a volume ≦3 ml via the vena cephalica), S.C. (in a volume ≦3 ml) or P.O. (in a volume of 1 ml/kg body weight, applied intragastrically via the cannula with a device that filled the lumen of the cannula: after injection of the test compound; 5 ml NaCl 0.9% was injected in order to correct for the dead space in the injection system). Immediately after administration of the test compound or its solvent, lidamidine (0.63 mg/kg was administered subcutaneously. 30 min later, the cannula was opened to determine the amount of fluid present in the stomach, promptly followed by reintroduction of the fluid. Then the test meal was administered via the cannula. This test meal consisted of 250 ml distilled water containing glucose (5 g/l) as a marker. The cannula remained closed for 30 min, whereafter the gastric contents were drained from the stomach to measure total volume (t=30 min). For later analysis 1 ml of the gastric contents was taken, promptly followed by reintroduction of the rest volume into the stomach. This sequence was repeated 4 times with 30 min intervals (t=60, 90, 120, 150 min).
In the 1 ml samples of the gastric contents, the glucose concentrations were measured on a Hitachi 717 automatic analyzer by the hexokinase method (Schmidt, 1961).
Curves were fitted to the measurement points (glucose versus time) using weighed non-linear regression analysis. Gastric emptying was quantified as the time needed to empty 70% of the meal (t 70%). The control emptying time was calculated as the mean t 70% of the last 5 solvent experiments of the same dog. Acceleration of delayed gastric emptying (Δt) was calculated as the time difference between t 70% compound and t 70% solvent. To correct for variations in emptying rate between dogs, Δt was expressed as % of t 70% solvent (Schuurkes et al. 1992)).

| Compound | change in vivo at 0.0025 mg/kg [%] | change in vivo at 0.01 mg/kg [%] | ΔT/T^b (acceleration of gastric emptying of a liquid meal delayed by lidamidine) | ΔT/T^a (acceleration of gastric emptying of a liquid meal delayed by lidamidine) |
| --- | --- | --- | --- | --- |
| COCCCN1CC[C@@H](CNC(=O)c2cc(Cl)c(N)c3c2OCC3)[C@H](OC)C1 (relative stereo) [Compound 30, trans-4-amino-5-chloro-2,3-dihydro-N-[[3-methoxy-1-(3-methoxypropyl)-4-piperidinyl]methyl]-7-benzofurancarboxamide] | -55 | -59 | – | – |
| (cis)-4-amino-5-chloro-2,3-dihydro-N-[[3-hydroxy-1-[3-(2-methyl-1,3-dioxolan-2-yl)propyl-]4-piperidinyl]methyl]-7-benzofurancarboxamide [Compound 7] | – | – | −0.07 | 0.11 |
| COCCCN1CCC(O)(CNC(=O)c2cc(Cl)c(N)c3c2OC(C)(C)C3)CC1 [Compound 86] | – | – | −0.33 | −0.47 |
| Nc1c(Cl)cc(C(=O)NC[C@@H]2CCN(CCOCCO)C[C@H]2O)c2c1CCCO2.O=C(O)C(=O)O (relative stereo) [Compound 75] | – | – | −0.39 | −0.01 |
| CC(=O)CCCN1CC[C@@H](CNC(=O)c2cc(Cl)c(N)c3c2OCC3)[C@H](O)C1 (relative stereo) [Compound 5, trans-4-amino-5-chloro-2,3-dihydro-N-[[3-hydroxy-1-(4-oxopentyl)-4-piperidinyl]methyl]-7-benzofurancarboxamide] | -57 | -36 | – | – |
| CCCCN1CC[C@@H](CNC(=O)c2cc(Cl)c(N)c3c2OCC3)[C@H](O)C1 (relative stereo) [Compound 2, trans-4-amino-N-[(1-butyl-3-hydroxy-4-piperidinyl)methyl]-5-chloro-2,3-dihydro-7-benzofurancarboxamide] | -61 | -34 | – | – |
